# Results as given in patent US8604048B2, “Pyridocarbazole type compounds and applications thereof” (Centre National de la Recherche Scientifique, priority 2009, dated 2013).
# Tests used:
# [1] = system: actin network of HeLa cells; experiment: Stability of the actin network to a depolymerization induced by latrunculin B; format: cell-based, Human
# Procedure: 7. a step of analysis of the effect of the compound to be tested on the actin network, via incubation of HeLa cells with the compound to be tested. […] When the actin network is stabilized, the latrunculin-induced depolymerization of the actin network is limited.
# The cells are grown on glass coverslips and incubated as for the tubulin staining. After elimination of the medium, the cells are washed with warm PBS then fixed, by addition of a solution of PBS/3.7% formaldehyde for 30 minutes at 37° C. The cells are washed with PBS then permeabilized with a solution of PBS/0.2% Triton X100 for 15 minutes at room temperature. After another washing with PBS, the cells are incubated with a solution of PBS/1% BSA for 30 minutes at room temperature. The cells are then incubated with phalloidin (0.165 μM final concentration) labelled with Alexa Fluor® 488 (Molecular Probes, Invitrogen) for 20 minutes at room temperature. The cells are washed a final time with PBS then dehydrated with pure ethanol. Finally, the cells are fixed to slides using a Fluorsave™ mounting solution.
# 8) Test for the Action on the Actin Cytoskeleton: Protocol for Evaluating, in Cells, the Stability of the Actin Network to a Depolymerization Induced by Latrunculin B
# 3 days before the experiment, glass coverslips are deposited under sterile conditions in 24-well microplates. In each well, HeLa cells (15 000 cells per well) in the exponential growth phase are seeded in 500 μl of RPMI medium.
# PBS (phosphate buffered saline, ref. P4417, Sigma), PBS/1% BSA (bovine serum albumin, Ref. A3059, Sigma), aliquots of 15 ml, stored at −20° C.; PBS/0.2% Triton X100 (Ref. T8787, Sigma); PBS/0.01% Tween® 20 (Ref. P9916, Sigma); PBS/0.3% BSA/0.02% NaN3 (Ref. for the NaN3: 6688, Merck), aliquots of 15 ml stored at −20° C. Phalloidin A488, (Ref. A12379, Invitrogen). L4: rabbit anti-detyrosinated-tubulin polyclonal antibody (cf. Fonrose et al., Cancer Res., […], 67:3371-3378). Anti-rabbit antibody coupled to Cyanine 3 (Ref. 111.165.144, Jackson Laboratories). […]
# [2] = system: LIMK1 activity in HeLa cells; experiment: Cellular LIMK1 activity assay (Ser3-cofilin phosphorylation, western blot); format: cell-based, Human; details: for Inhibition of Ser3-cofilin phosphorylation in HeLa cells: 2 h, indicated concentrations
# Procedure: HeLa cells were treated by compounds (or equivalent amount of DMSO as control) at indicated concentrations and time. Whole cell extracts were prepared using RIPA buffer (50 mM Tris-HCl pH=7.4, 150 mM NaCl, 1% NP-40, 0.5% sodium deoxycholate, 1% SDS, 1 mM EGTA, 1 mM EDTA, 5% glycerol, 1 mM DTT) supplemented with protease inhibitors (Sigma, P8340) and phosphatase inhibitors (Sigma, P5726). About thirty micrograms of proteins were loaded and migrated through a 12% SDS-PAGE. After electro-transfer, the nitrocellulose membrane was saturated with PBS, 0.1% Tween® 20, 5% Bovin Serum Albumin. Amount and phosphorylation status of cofilin were estimated using the polyclonal antibodies anti-cofilin (Cytoskeleton, #ACFLO2) and anti-phosphocofilin (Ser3) (Cell Signaling, #3311). Goat anti-rabbit IgG-HorseRadish Peroxidase conjugated (Biosource, #ALI0404) was used as secondary antibody. Detection was performed using ECL plus western blotting detection system (GE Healthcare).
# HeLa cells were treated by 25 μM Compound 1 (H06) for 2 h (lane 2). Culture medium was then discarded and fresh medium (RPMI) was added. At different times after RPMI addition (lane 3, 30 minutes; lane 4, 1 hour; lane 5, 1.5 hour; lane 6, 2 hours; lane 7, 4 hours), amount and phosphorylation status of cofilin were determined as described in Example 2. The lane 1 corresponds to time “0”, i.e. a cell extract of cells that have not been treated with Compound 1.
# HeLa cells were treated by indicated concentrations of Compound 1 (or ellipticine as negative control) for 2 h.
# Amount and phosphorylation status of cofilin were determined as described in Example 2. In vitro phosphorylated cofilin (left) was used as control.
# HeLa cells were treated by 25 μM of Compound 1 for indicated time. Amount and phosphorylation status of cofilin were determined as described in Example 2.
Structure (SMILES),"Protection of the actin network from depolymerization by latrunculin B ([1]; HeLa cells, confocal microscope)","Reversibility of inhibition of Ser3-cofilin phosphorylation in HeLa cells ([2]; 25 μM for 2 h, then replaced by RPMI medium)",Inhibition of Ser3-cofilin phosphorylation in HeLa cells [2],"Treatment time after which the inhibitory effect on cofilin phosphorylation is detected ([2]; HeLa, 25 μM) [min]",Effect on the stabilization of actin microfilaments ([1]; general statement)
"Cc1c2cc[nH]c(=O)c2c(C)c2c1[nH]c1ccc(OC(=O)c3ccccc3)cc12 [Compound 1, 9-benzoyloxy-5,11-dimethyl-2H,6H-pyrido[4,3-b]carbazol-1-one]",protects the actin network,phospho-cofilin is synthesized again,"clearly inhibits the formation of phospho-cofilin, in a dose-dependent manner",30,–
Cc1c2ccncc2c(C)c2c1[nH]c1ccccc12 [ellipticine],–,–,does not avoid the phosphorylation of cofilin,–,does not have any effect
